Literature values, collected in patent publication US9955683B2, “Insecticidal apparatus and methods” (priority 2012, dated 2018).

How the values were obtained:
blowfly larvae = settings: sheep
[1] = ruminants; excretion mainly via the feces

Compound: Nc1nc(N)nc(NC2CC2)n1 [cyromazine]
- duration for which control of blowfly larvae can be maintained (blowfly larvae; after a single pour-on application): up to 13 wk

Compound: O=C(NC(=O)c1c(F)cccc1F)Nc1ccc(Cl)cc1 [Diflubenzuron]
- duration of protection against blowfly strike (blowfly larvae; emulsifiable concentrate used as a dip or shower, preventive use): 12-14 wk

Compound: N#Cc1c(N)nc(NC2CC2)nc1N [Dicyclanil]
- duration of protection, blowfly control (blowfly larvae; pour-on formulation): up to 20 wk

Compound: Ivermectin
- fraction of unaltered molecule excreted in the urine [1]: < 2%
